Experimental data published in ChEMBL document CHEMBL1201862, “PubChem BioAssay data set” (2004).
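A five-concentration, 48-hour dose response in 96-well plates underlies each endpoint, interpolated linearly between surrounding concentrations. Here, GI50 denotes the concentration required for 50% inhibition of growth.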 The source made the active and inactive calls. Cut-off read from the data, not from the text of the source: active = GI50 up to about 1.1 µM and inactive = higher.

What was measured:
Assay in all cases: NCI-60 cell line screen, 48 h
[1] = test system: A498
[2] = test system: CCRF-CEM
[3] = test system: RPMI-8226
[4] = test system: RXF 393
[5] = test system: OVCAR-5
[6] = test system: OVCAR-8
[7] = test system: DU-145
[8] = test system: OVCAR-3
[9] = test system: SF-295
[10] = test system: MDA-N
[11] = test system: KM12
[12] = test system: PC-3
[13] = test system: HT-29
[14] = test system: U-251
[15] = test system: TK-10
[16] = test system: SNB-19
[17] = test system: SK-OV-3
[18] = test system: SR
[19] = test system: SNB-75
[20] = test system: SF-539

Measured: GI50

CN1C/C(=C\c2cccs2)C2=NN(C)C(c3cccs3)C2C1 (configuration not stated)
inactive: [1] 46.7 µM | [2] 72.8 µM | [3] 24.8 µM | [4] > 100 µM | [5] > 100 µM | [6] > 100 µM | [7] > 100 µM | [8] 77.8 µM | [9] > 100 µM | [10] > 100 µM | [11] > 100 µM | [12] 19 µM | [13] 61.1 µM | [14] 22.8 µM | [15] > 100 µM | [16] > 100 µM | [17] > 100 µM

COc1cc(/C=C/C(=O)OC[C@]23O[C@H]2[C@@H](OC2OC(C)C(O)C(O)C2O)C2C=CO[C@@H](OC4OC(CO)C(O)C(O)C4O)C23)ccc1O (some centres not stated)
inactive: [3] > 100 µM | [5] > 100 µM | [18] > 100 µM | [6] > 100 µM | [7] > 100 µM | [8] > 100 µM | [9] > 100 µM | [10] > 100 µM | [11] > 100 µM | [19] > 100 µM | [12] > 100 µM | [13] > 100 µM | [14] > 100 µM | [15] > 100 µM | [16] > 100 µM | [17] > 100 µM

CC(=O)N/N=C1/CC[C@@]2(C)C(=CC[C@H]3C4CCC(C(C)CCCC(C)C)[C@@]4(C)CCC32)C1(C)C (some centres not stated)
inactive: [2] 13.8 µM | [3] > 100 µM | [5] > 100 µM | [18] 50.9 µM | [6] 51.1 µM | [7] > 100 µM | [8] 74.8 µM | [9] 22.3 µM | [10] > 10 µM | [11] 46.3 µM | [19] > 100 µM | [12] 30.1 µM | [13] 31.5 µM | [14] 75.5 µM | [15] > 100 µM | [16] 75.3 µM | [17] > 100 µM

COc1cccc(-n2c(N)c(-c3nc4cc(C(F)(F)F)ccc4s3)c3ccc([N+](=O)[O-])cc3c2=O)c1
inactive: [1] > 100 µM | [3] > 100 µM | [5] > 100 µM | [7] > 100 µM | [8] > 100 µM | [9] > 100 µM | [10] > 100 µM | [11] > 100 µM | [19] > 100 µM | [12] > 100 µM | [13] > 100 µM | [14] > 100 µM | [15] > 100 µM | [16] > 100 µM | [17] > 100 µM

CC(=O)O[C@H]1CC[C@@]2(C)C(=CC[C@@H]3[C@@H]2CC[C@]2(C)c4nc(N)c(C#N)cc4C[C@@H]32)C1
inactive: [1] > 67.6 µM | [2] 14 µM | [3] 5.83 µM | [4] 10.7 µM | [5] > 85.3 µM | [6] 30.3 µM | [7] 40.7 µM | [8] 1.75 µM | [20] 13.7 µM | [9] 35.7 µM | [10] 29 µM | [11] 55.1 µM | [19] 7.96 µM | [12] 42.5 µM | [13] 9.82 µM | [14] 43.9 µM | [15] 27.2 µM | [16] > 100 µM | [17] 38.2 µM

CC(=O)OCCn1c(Cc2ccc(C)cc2)nn(C(C)=O)c1=O
inactive: [1] > 100 µM | [3] > 100 µM | [5] > 100 µM | [6] > 100 µM | [7] > 100 µM | [8] > 100 µM | [20] > 100 µM | [9] > 100 µM | [10] > 100 µM | [11] > 100 µM | [12] > 100 µM | [13] > 100 µM | [14] > 100 µM | [15] > 100 µM | [16] > 100 µM | [17] > 100 µM

COc1cc(O)c(/C=N/N=C(\N)NO)c(OC)c1
inactive: [1] > 10 µM | [2] 5.57 µM | [3] > 10 µM | [4] 8.3 µM | [5] > 10 µM | [6] > 10 µM | [7] 6.24 µM | [8] 5.5 µM | [20] > 10 µM | [9] 4.92 µM | [10] > 10 µM | [11] 8.18 µM | [19] 1.56 µM | [12] 6.18 µM | [13] 6.31 µM | [14] > 10 µM | [15] > 10 µM | [16] > 10 µM | [17] > 10 µM

CN1C(=O)c2cccc3cc([N+](=O)[O-])cc(c23)C1=O
inactive: [2] > 10 µM | [3] > 10 µM | [5] > 10 µM | [18] > 10 µM | [6] > 10 µM | [7] > 10 µM | [8] > 10 µM | [20] > 10 µM | [9] > 10 µM | [10] > 10 µM | [11] > 10 µM | [19] > 10 µM | [12] > 10 µM | [13] > 10 µM | [14] > 10 µM | [15] > 10 µM | [16] > 10 µM | [17] > 10 µM
